We go through 1 compound from patent US10413583B2, “Synthetic substrates for enzymes that catalyze reactions of modified cysteines and related methods” (The University of Chicago, priority 2016, dated 2019).

SMILES strings stand for the structures.

Data set [1] concerns the target T1, APT1 (Homo sapiens, UniProt O75608).
T1 construct: His-tag; made in house; host or cells: E. coli ROSETTA DE3
Nature of the data set: In vitro kinetic assays and emission spectra of DPP-1, DPP-4, DPP-5 with APT1 (no detergent). Type of data set: biochemical. The method, then: (§1) 150 μL of 2 μM DPP-1, DPP4 or DPP-5 in HEPES (20 mM, pH=7.4, 150 mM NaCl) were added to a 96-well optical bottom plate (Nunc 265301, Fisher Scientific, Pittsburgh, Pa., United States of America) at room temperature. 150 μL of either HEPES buffer alone or HEPES buffer containing 100 nM APT1 or APT2 (purification using previous methods), was added using a multi-channel pipette, resulting in a final concentration of 1 μM DPP-1/DPP4/DPP-5 and 50 nM APT1 or APT2. Fluorescence intensities (λex 490/20 nm, λem 545/20 nm, Gain 80, read from bottom with height 4.5 mm, and sweep method) were measured at 15 s time intervals for 30 min at 37° C. Following the 30 min kinetic run, emission spectra were obtained (λex 480/20 nm, Aem515-700 nm, Gain 80, read from bottom with height 4.5 mm, and sweep method).

The target in data set [2] is T2, APT2 (Homo sapiens, UniProt O95372).
T2 construct: His-tag; made in house; host or cells: E. coli ROSETTA DE3
Nature of the data set: In vitro kinetic assays and emission spectra of DPP-1, DPP-4, DPP-5 with APT2 (no detergent). Type of data set: biochemical. The procedure: as §1

Data set [3] can be described thus: Water solubility of probes (stated in words). Type of data set: physicochemical.
Data set [4] can be described thus: Log P analysis of DPP-1/4/5. Type of data set: physicochemical. Particulars: 1-octanol / Hepes buffer. The method, then: 2 μL of 1 mM of DPP-1/4/5 was dissolved in 500 μL of Hepes buffer in two 1.5 mL tubes. To one tube, 500 μL of 1-octanol was added and the tube was shaken for 10 min followed by keeping it undisturbed for 10 min. Then, 10 μL of aqueous phase from each tube was placed in a 96 well plate reader. To this, 190 μL of 1M NaOH was added and fluorescence intensities (λex 490/20 nm, λem 545/20 nm, Gain 80, read from bottom with height 4.5 mm, and sweep method) were measured at 15 second time intervals for 1 hr at room temperature. The fluorescence read out at saturation was used to calculate Log P values by following equation: log P=log(Foct/Faq) Foct=Ftotal−Faq where: Foct=Fluorescence of 1-octanol fraction; Faq=Fluorescence of the aqueous fraction after treatment with 1-octanol, and Ftotal=Fluorescence of the aqueous fraction with no treatment with 1-octanol.

The target in data set [5] is T2, APT2. In words: Enzyme kinetics analysis of DPP-5 with APT2. Type of data set: biochemical. Particulars: APT2 50 nM. The procedure:
150 μL of 1 M DTT in HEPES buffer was added to different concentrations of 150 μL DPP-5 and then the stable fluorescence intensities of totally deacylated product were measured by the methods described above. Fluorescence intensity of per molar deacylated-product was then calculated by linear least-squares fitting of plots of fluorescence vs. concentration. For Michaelis-Menten constant, in vitro kinetics curves were obtained for different final concentrations of DPP-5 in HEPES with 50 nM APT1 or APT2. The fluorescence intensities measured were then normalized to the concentrations of product by fluorescence-intensity-permolar-product. A Lineweaver-Burk plot was used to calculate the Michaelis constant, KM, and the maximum velocity, Vmax, which is proportional to kcat by concentration of APT1 or APT2. All fits have R^2 values of >0.99.

T2 sequence (O95372 whole entry): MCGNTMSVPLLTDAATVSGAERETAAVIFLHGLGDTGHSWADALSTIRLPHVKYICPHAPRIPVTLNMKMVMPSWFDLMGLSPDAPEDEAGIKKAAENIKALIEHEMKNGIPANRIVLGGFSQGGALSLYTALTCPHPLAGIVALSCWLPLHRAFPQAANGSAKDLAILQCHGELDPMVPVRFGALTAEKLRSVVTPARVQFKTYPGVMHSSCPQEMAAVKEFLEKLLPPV
T1 sequence (O75608 whole entry): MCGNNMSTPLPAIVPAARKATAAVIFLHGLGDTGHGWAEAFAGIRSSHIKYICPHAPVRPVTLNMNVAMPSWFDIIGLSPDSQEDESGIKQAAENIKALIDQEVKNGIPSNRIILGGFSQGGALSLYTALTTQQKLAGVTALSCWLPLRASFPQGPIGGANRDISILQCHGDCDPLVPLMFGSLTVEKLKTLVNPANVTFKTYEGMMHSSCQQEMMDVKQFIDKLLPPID

Consider `CCCCCCCCCCCCCCCC(=O)SC[C@@H](C(=O)NC)N(C)C(=O)Oc1ccc2c(c1)Oc1cc(N3CCN(C(=O)CCC(=O)O)CC3)ccc1C21OC(=O)c2ccccc21` (some centres unmarked) [DPP-5], for which the “enhancement in intensity of fluorescence signal” value in data set [1] (1 μM probe, 50 nM APT1, 30 minutes, absence of detergents) is listed as 350 fold; in data set [2] (1 μM probe, 50 nM APT2, 30 minutes, absence of detergents), 350 fold. The “in vitro kinetics” value is reported as “more rapid turn-on response” in data set [1] (APT1, absence of detergents) and “more rapid turn-on response” in data set [2] (APT2, absence of detergents). Further, the “water solubility” value in data set [3] is recorded as “relatively higher water solubility”. For the same compound, the log partition coefficient (LogP) in data set [4] was 0.79. The same compound came in with a Kcat in data set [5] of 0.066 s⁻¹. Moreover, the Km in data set [5] (Lineweaver-Burk) came to 2.1 µM.
